What was measured:
NET = NET (Rattus norvegicus, UniProt Q63380); experiment: NET binding assay, [3H]nisoxetine, rat frontal cortex membranes
[1] = Mouse microsomal stability assay; type: in vitro ADME; settings: mouse liver microsomes
mice = experiment: Locomotor activity studies in mice; settings: for locomotion: i.p.
[2] = biological target: Dopamine D2 receptor Gi1 activation (Homo sapiens, UniProt P14416); type: cell-based
DAT = DAT (Rattus norvegicus, UniProt P23977); experiment: DAT binding assay, [3H]WIN 35,428, rat striatal membranes; settings: 8c vs 10a, 9c vs 11a
[3] = introductory statement, no reference given; cited from earlier work

Sequence of NET (Q63380 1-617): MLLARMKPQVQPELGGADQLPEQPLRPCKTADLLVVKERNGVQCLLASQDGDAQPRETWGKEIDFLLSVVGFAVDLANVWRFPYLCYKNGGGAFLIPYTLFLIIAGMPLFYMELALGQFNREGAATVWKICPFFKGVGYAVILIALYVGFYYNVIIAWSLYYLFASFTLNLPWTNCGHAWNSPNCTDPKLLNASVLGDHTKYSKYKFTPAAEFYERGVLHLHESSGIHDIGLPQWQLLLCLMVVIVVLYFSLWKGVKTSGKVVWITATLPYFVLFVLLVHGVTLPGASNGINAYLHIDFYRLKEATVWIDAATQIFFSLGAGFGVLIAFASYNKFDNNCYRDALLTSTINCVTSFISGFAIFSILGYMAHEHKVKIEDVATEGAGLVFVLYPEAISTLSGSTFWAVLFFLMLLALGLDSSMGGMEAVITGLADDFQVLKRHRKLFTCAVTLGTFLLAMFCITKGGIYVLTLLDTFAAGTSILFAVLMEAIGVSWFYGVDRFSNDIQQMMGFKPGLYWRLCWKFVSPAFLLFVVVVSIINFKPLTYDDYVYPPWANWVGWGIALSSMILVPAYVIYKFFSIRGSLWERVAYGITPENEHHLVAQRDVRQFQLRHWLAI
Sequence of Dopamine D2 receptor Gi1 activation (P14416 whole entry): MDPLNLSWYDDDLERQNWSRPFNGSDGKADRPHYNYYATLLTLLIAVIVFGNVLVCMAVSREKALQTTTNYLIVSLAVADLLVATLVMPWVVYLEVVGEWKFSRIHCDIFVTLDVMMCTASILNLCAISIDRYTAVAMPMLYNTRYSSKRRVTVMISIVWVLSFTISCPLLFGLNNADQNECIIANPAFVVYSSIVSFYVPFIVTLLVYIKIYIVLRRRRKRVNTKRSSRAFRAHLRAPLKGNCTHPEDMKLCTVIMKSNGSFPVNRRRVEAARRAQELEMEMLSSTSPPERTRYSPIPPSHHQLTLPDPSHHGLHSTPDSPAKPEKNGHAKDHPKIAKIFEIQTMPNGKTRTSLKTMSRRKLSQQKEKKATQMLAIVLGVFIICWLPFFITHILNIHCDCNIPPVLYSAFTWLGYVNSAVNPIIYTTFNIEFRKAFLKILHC
Sequence of DAT (P23977 whole entry): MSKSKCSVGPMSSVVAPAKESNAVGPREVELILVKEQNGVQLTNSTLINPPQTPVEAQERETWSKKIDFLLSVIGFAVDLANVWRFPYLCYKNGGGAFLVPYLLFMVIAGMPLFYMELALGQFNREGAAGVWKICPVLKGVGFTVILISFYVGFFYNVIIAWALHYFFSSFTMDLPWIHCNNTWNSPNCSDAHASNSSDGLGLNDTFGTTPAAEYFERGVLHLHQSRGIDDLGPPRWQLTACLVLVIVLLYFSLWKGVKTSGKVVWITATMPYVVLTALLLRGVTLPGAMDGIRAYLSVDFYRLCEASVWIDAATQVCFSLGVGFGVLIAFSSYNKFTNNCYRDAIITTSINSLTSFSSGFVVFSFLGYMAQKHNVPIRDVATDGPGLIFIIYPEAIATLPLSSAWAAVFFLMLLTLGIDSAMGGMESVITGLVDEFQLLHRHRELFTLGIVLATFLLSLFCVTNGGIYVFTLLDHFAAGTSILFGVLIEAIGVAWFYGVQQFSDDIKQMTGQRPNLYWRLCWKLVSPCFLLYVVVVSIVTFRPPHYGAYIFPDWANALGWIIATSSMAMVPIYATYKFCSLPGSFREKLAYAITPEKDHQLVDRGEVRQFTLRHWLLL

CC(O)CN1CCN(CC[S+]([O-])C(c2cccc(Cl)c2)c2cccc(Cl)c2)CC1 (centres unmarked) [Compound 9i, 1-(4-(2-((Bis(3-chlorophenyl)methyl)sulfinyl)ethyl)piperazin-1-yl)propan-2-ol]
Ki (NET): > 50 µM

CC(O)CN1CCN(C(=O)CSC(c2ccc(F)cc2)c2ccc(F)cc2)CC1 (centres unmarked) [Compound 13c, 2-((Bis(4-fluorophenyl)methyl)thio)-1-(4-(2-hydroxypropyl)piperazin-1-yl)ethan-1-one]
time in which metabolized [1]: < 30 min

[O-][S+](CCN1CCN(CC(O)Cc2ccccc2)CC1)C(c1ccc(F)cc1)c1ccc(F)cc1 (centres unmarked) [Compound 11b, 1-(4-(2-((Bis(4-fluorophenyl)methyl)sulfinyl)ethyl)piperazin-1-yl)-3-phenylpropan-2-ol]
locomotor stimulation compared to cocaine (mice; mice): only moderate locomotor stimulation in mice and was substantially less efficacious than cocaine
locomotion (mice; mice, 30 mg/kg): significant dose-dependent increase in locomotion
locomotor stimulation compared to cocaine (mice; mice, listed as 11d): far less efficacious than cocaine

Fc1ccc(C(SCCNCCCc2ccccc2)c2ccc(F)cc2)cc1 [Compound 4, N-(2-((bis(4-fluorophenyl)methyl)thio)ethyl)-3-phenylpropan-1-amine]
IC50 [2]: > 10 µM

[O-][S+](CCN1CCN(CC(O)Cc2ccccc2)CC1)C(c1ccccc1)c1ccccc1 (centres unmarked) [Compound 11a, 1-(4-(2-(Benzhydrylsulfinyl)ethyl)piperazin-1-yl)-3-phenylpropan-2-ol]
time in which metabolized [1]: < 30 min

NC(=O)C[S@@+]([O-])C(c1ccccc1)c1ccccc1 [(R)-2, reference compound]
IC50 [2]: > 10 µM
locomotion (mice; mice, 10 mg/kg): very mild increase
locomotion (mice; mice, 30 mg/kg): significant dose-dependent increase in locomotion

COC(=O)[C@H]1[C@@H](OC(=O)c2ccccc2)C[C@@H]2CC[C@H]1N2C [cocaine, reference compound]
locomotion (mice; mice, 3, 10 mg/kg): robust dose-dependent increase in locomotion

[O-][S+](CCN1CCN(Cc2ccc(Cl)cc2)CC1)C(c1ccc(F)cc1)c1ccc(F)cc1 (centres unmarked) [Compound 9h, 1-(2-((Bis(4-fluorophenyl)methyl)sulfinyl)ethyl)-4-(4-chlorobenzyl)piperazine]
Ki (NET): > 50 µM
time in which metabolized [1]: < 30 min

[O-][S+](CCN1CCN(Cc2ccc(F)cc2)CC1)C(c1ccc(F)cc1)c1ccc(F)cc1 (centres unmarked) [Compound 9f, 1-(2-((Bis(4-fluorophenyl)methyl)sulfinyl)ethyl)-4-(4-fluorobenzyl)piperazine]
Ki (NET): > 50 µM
time in which metabolized [1]: < 30 min

CCc1cc(Cl)c(OC)c(C(=O)NC[C@@H]2CCCN2CC)c1O [eticlopride]
IC50 [2]: 0.0021 ± 0.0008 µM

CC(O)CN1CCN(CCSC(c2ccccc2)c2ccccc2)CC1 (centres unmarked) [Compound 8c, 1-(4-(2-(Benzhydrylthio)ethyl)piperazin-1-yl)propan-2-ol]
fold decrease in DAT affinity on removal of the phenyl group (DAT): 25 fold

CC(O)CN1CCN(C(=O)C[S+]([O-])C(c2cccc(Cl)c2)c2cccc(Cl)c2)CC1 (centres unmarked) [Compound 14g, 2-((Bis(3-chlorophenyl)methyl)sulfinyl)-1-(4-(2-hydroxypropyl)piperazin-1-yl)ethan-1-one]
Ki (NET): > 50 µM

O=C(C[S+]([O-])C(c1ccc(F)cc1)c1ccc(F)cc1)N1CCN(CCCc2ccccc2)CC1 (centres unmarked) [Compound 14b, 2-((Bis(4-fluorophenyl)methyl)sulfinyl)-1-(4-(3-phenylpropyl)piperazin-1-yl)ethan-1-one]
time in which metabolized [1]: < 30 min

NC(=O)C[S+]([O-])C(c1ccccc1)c1ccccc1 (centres unmarked) [Compound 2, 2-[(diphenylmethyl)sulfinyl]acetamide]
water solubility [3]: essentially insoluble in water

O=C(C[S+]([O-])C(c1ccc(F)cc1)c1ccc(F)cc1)N1CCN(Cc2ccc(F)cc2)CC1 (centres unmarked) [Compound 14e, 2-((Bis(4-fluorophenyl)methyl)sulfinyl)-1-(4-(4-fluorobenzyl)piperazin-1-yl)ethan-1-one]
time in which metabolized [1]: < 30 min

CCCCN1C2CCC1CC(OC(c1ccc(F)cc1)c1ccc(F)cc1)C2 (centres unmarked) [Compound 3, 3-(bis(4-fluorophenyl)methoxy)-8-butyl-8-azabicyclo[3.2.1]octane]
IC50 [2]: 2 ± 0.73 µM

[O-][S+](CCN1CCN(Cc2ccc(C(F)(F)F)cc2)CC1)C(c1ccc(F)cc1)c1ccc(F)cc1 (centres unmarked) [Compound 9g, 1-(2-((Bis(4-fluorophenyl)methyl)sulfinyl)ethyl)-4-(4-(trifluoromethyl)benzyl)piperazine]
Ki (NET): > 50 µM
time in which metabolized [1]: < 30 min

CC(O)CN1CCN(C(=O)CSC(c2cccc(Cl)c2)c2cccc(Cl)c2)CC1 (centres unmarked) [Compound 13g, 2-((Bis(3-chlorophenyl)methyl)thio)-1-(4-(2-hydroxypropyl)piperazin-1-yl)ethan-1-one]
Ki (NET): > 50 µM

CC(O)CN1CCN(CC[S+]([O-])C(c2ccccc2)c2ccccc2)CC1 (centres unmarked) [Compound 9c, 1-(4-(2-(Benzhydrylsulfinyl)ethyl)piperazin-1-yl)propan-2-ol]
fold decrease in DAT affinity on removal of the phenyl group (DAT): 187 fold
